Data as given in patent US7399638B2, “Prediction method for lipidosis” (Takeda Pharmaceutical Company Limited, priority 2003, dated 2008).
Read-outs that look alike come from different tables or passages of the source. Each block holds one compound with its values, some of them ahead of it.

How the values were obtained:
Crj: CD(SD)IGS rats [1] = test: Urinary PAG/hippuric acid ratio by 1H NMR in rats
Method: During the urine pooling, the collecting vessels were kept in an ice-cooled condition. After the urine collection, the urine was centrifuged at 1500×g for 10 minutes, and not less than 1 mL of the supernatant was collected and stored under freezing (below −70° C.) in a microtube in an ultralow-temperature freezer until the measurement. For the negative control group, 24-hour pooled urine was collected under ice cooling; after the urine collection, the urine was stored at −30° C. until the measurement.
Crj: CD(SD)IGS rats [2] = settings: rat, in vivo
Method: The following 10 kinds of commercially available drugs were examined as the test compounds for a potential of inducing PLsis by histopathological examination and peripheral blood lymphocyte testing.
The following experiments were performed using the prematurely autopsied animals.
The high-dose dosing suspension was diluted about 3 fold and 10 fold with dispersant/solvent to prepare intermediate- and low-dose dosing suspensions. […] [For LD50, the Summary Basis of Approval (FDA) for each drug was referenced to.]
The animals were examined for mortality, general conditions, body weight, food consumption and the like using PM4800 (Mettler) and EB3200D (Shimadzu Corporation).

male cynomolgus monkeys = settings: cynomolgus monkey, in vivo
Method: Amiodarone and perhexiline were purchased from SIGMA Company.
Subsequently, the animals were allocated to four groups (5 animals in total) comprising 2 animals in the control group and 1 male in each treatment group, respectively.
The high-dose dosing suspension was diluted with the dispersant/solvent to prepare a low-dose dosing suspension.
After completion of the administration, livers, kidneys, hearts, spleens, lungs, mesenteric lymph nodes, eyeballs, testes and brains were collected from all animals, and examined for histopathological changes by conventional method of optical microscopy. Additionally, blood samples were collected in the pre-dosing period, on the first day of administration, and on days 2 and 6 of treatment period, blood smear specimens were prepared, and vacuolated lymphocyte ratios were determined.

[3] = rat urine, 100 mg/kg/day by gavage, 3 days, mean n = 3-4
[4] = rat urine, 300 mg/kg/day by gavage, 3 days, mean n = 3-4
[5] = rat urine, 1000 mg/kg/day by gavage, 3 days, mean n = 3-4
[6] = rat 24-hour pooled urine, 1 mg/kg/day by gavage, 4 days, negative control drug, mean n = 2-4
[7] = rat 24-hour pooled urine, 3 mg/kg/day by gavage, 4 days, negative control drug, mean n = 2-4
[8] = rat 24-hour pooled urine, 30 mg/kg/day by gavage, 4 days, negative control drug, mean n = 2-4
[9] = rat 24-hour pooled urine, 100 mg/kg/day by gavage, 4 days, negative control drug, mean n = 2-4

SMILES: CC/C(=C(\c1ccccc1)c1ccc(OCCN(C)C)cc1)c1ccccc1 [Tamoxifen, tamoxifen]
PAG + hippuric acid/creatinine (Crj: CD(SD)IGS rats [1]; [3]): 1.34 | PAG/creatinine (first term of PAG + hippuric acid) (Crj: CD(SD)IGS rats [1]; [3]): 0.31 | hippuric acid/creatinine (second term of PAG + hippuric acid) (Crj: CD(SD)IGS rats [1]; [3]): 1.02 | PAG + hippuric acid/creatinine (Crj: CD(SD)IGS rats [1]; [4]): 1.16 | PAG/creatinine (first term of PAG + hippuric acid) (Crj: CD(SD)IGS rats [1]; [4]): 0.63 | hippuric acid/creatinine (second term of PAG + hippuric acid) (Crj: CD(SD)IGS rats [1]; [4]): 0.53 | PAG + hippuric acid/creatinine (Crj: CD(SD)IGS rats [1]; [5]): 1.58 | PAG/creatinine (first term of PAG + hippuric acid) (Crj: CD(SD)IGS rats [1]; [5]): 0.91 | hippuric acid/creatinine (second term of PAG + hippuric acid) (Crj: CD(SD)IGS rats [1]; [5]): 0.67 | Histopathological changes (PLsis): Liver (Crj: CD(SD)IGS rats [2]; 100 mg/kg/day): − | Histopathological changes (PLsis): Lung (Crj: CD(SD)IGS rats [2]; 100 mg/kg/day): + | Histopathological changes (PLsis): Lymph node (Crj: CD(SD)IGS rats [2]; 100 mg/kg/day): + | Histopathological changes (PLsis): Others (Crj: CD(SD)IGS rats [2]; 100 mg/kg/day): − | Histopathological changes (PLsis): Spleen (Crj: CD(SD)IGS rats [2]; 100 mg/kg/day): − | Histopathological changes (PLsis): Liver (Crj: CD(SD)IGS rats [2]; 300 mg/kg/day): + | Histopathological changes (PLsis): Lung (Crj: CD(SD)IGS rats [2]; 300 mg/kg/day): + | Histopathological changes (PLsis): Lymph node (Crj: CD(SD)IGS rats [2]; 300 mg/kg/day): + | Histopathological changes (PLsis): Others (Crj: CD(SD)IGS rats [2]; 300 mg/kg/day): − | Histopathological changes (PLsis): Spleen (Crj: CD(SD)IGS rats [2]; 300 mg/kg/day): − | Histopathological changes (PLsis): Liver (Crj: CD(SD)IGS rats [2]; 1000 mg/kg/day): + | Histopathological changes (PLsis): Lung (Crj: CD(SD)IGS rats [2]; 1000 mg/kg/day): + | Histopathological changes (PLsis): Lymph node (Crj: CD(SD)IGS rats [2]; 1000 mg/kg/day): + | Histopathological changes (PLsis): Others (Crj: CD(SD)IGS rats [2]; 1000 mg/kg/day): − | Histopathological changes (PLsis): Spleen (Crj: CD(SD)IGS rats [2]; 1000 mg/kg/day): −

SMILES: CCCCc1oc2ccccc2c1C(=O)c1cc(I)c(OCCN(CC)CC)c(I)c1 [Amiodarone]
induction of PLsis/steatosis (male cynomolgus monkeys; 60 mg/kg): not observed | histopathological changes in any target organ (male cynomolgus monkeys; 300 mg/kg): observed | Histopathological changes (PLsis): Liver (Crj: CD(SD)IGS rats [2]; 100 mg/kg/day): − | Histopathological changes (PLsis): Lung (Crj: CD(SD)IGS rats [2]; 100 mg/kg/day): − | Histopathological changes (PLsis): Lymph node (Crj: CD(SD)IGS rats [2]; 100 mg/kg/day): − | Histopathological changes (PLsis): Others (Crj: CD(SD)IGS rats [2]; 100 mg/kg/day): − | Histopathological changes (PLsis): Spleen (Crj: CD(SD)IGS rats [2]; 100 mg/kg/day): − | Histopathological changes (PLsis): Liver (Crj: CD(SD)IGS rats [2]; 300 mg/kg/day): − | Histopathological changes (PLsis): Lung (Crj: CD(SD)IGS rats [2]; 300 mg/kg/day): + | Histopathological changes (PLsis): Lymph node (Crj: CD(SD)IGS rats [2]; 300 mg/kg/day): + | Histopathological changes (PLsis): Others (Crj: CD(SD)IGS rats [2]; 300 mg/kg/day): − | Histopathological changes (PLsis): Spleen (Crj: CD(SD)IGS rats [2]; 300 mg/kg/day): − | Histopathological changes (PLsis): Liver (Crj: CD(SD)IGS rats [2]; 1000 mg/kg/day): − | Histopathological changes (PLsis): Lung (Crj: CD(SD)IGS rats [2]; 1000 mg/kg/day): + | Histopathological changes (PLsis): Lymph node (Crj: CD(SD)IGS rats [2]; 1000 mg/kg/day): + | Histopathological changes (PLsis): Others (Crj: CD(SD)IGS rats [2]; 1000 mg/kg/day): − | Histopathological changes (PLsis): Spleen (Crj: CD(SD)IGS rats [2]; 1000 mg/kg/day): +

PAG + hippuric acid/creatinine (Crj: CD(SD)IGS rats [1]; [6]): 1.39 | PAG/PAG + hippuric acid (Crj: CD(SD)IGS rats [1]; [6]): 10.79% | PAG/creatinine (first term of PAG + hippuric acid) (Crj: CD(SD)IGS rats [1]; [6]): 0.15 | PAG/hippuric acid (Crj: CD(SD)IGS rats [1]; [6]): 12.09% | hippuric acid/creatinine (second term of PAG + hippuric acid) (Crj: CD(SD)IGS rats [1]; [6]): 1.24 | PAG + hippuric acid/creatinine (Crj: CD(SD)IGS rats [1]; [7]): 1.39 | PAG/PAG + hippuric acid (Crj: CD(SD)IGS rats [1]; [7]): 15.11% | PAG/creatinine (first term of PAG + hippuric acid) (Crj: CD(SD)IGS rats [1]; [7]): 0.21 | PAG/hippuric acid (Crj: CD(SD)IGS rats [1]; [7]): 15.41% | hippuric acid/creatinine (second term of PAG + hippuric acid) (Crj: CD(SD)IGS rats [1]; [7]): 1.18 | Histopathological changes (PLsis): Liver (Crj: CD(SD)IGS rats [2]; 1 mg/kg/day): − | Histopathological changes (PLsis): Lung (Crj: CD(SD)IGS rats [2]; 1 mg/kg/day): − | Histopathological changes (PLsis): Lymph node (Crj: CD(SD)IGS rats [2]; 1 mg/kg/day): − | Histopathological changes (PLsis): Others (Crj: CD(SD)IGS rats [2]; 1 mg/kg/day): − | Histopathological changes (PLsis): Spleen (Crj: CD(SD)IGS rats [2]; 1 mg/kg/day): − | Histopathological changes (PLsis): Liver (Crj: CD(SD)IGS rats [2]; 3 mg/kg/day): − | Histopathological changes (PLsis): Lung (Crj: CD(SD)IGS rats [2]; 3 mg/kg/day): − | Histopathological changes (PLsis): Lymph node (Crj: CD(SD)IGS rats [2]; 3 mg/kg/day): − | Histopathological changes (PLsis): Others (Crj: CD(SD)IGS rats [2]; 3 mg/kg/day): − | Histopathological changes (PLsis): Spleen (Crj: CD(SD)IGS rats [2]; 3 mg/kg/day): −
SMILES: O=C(Nc1c(Cl)cncc1Cl)c1ccc(OC(F)F)c(OCC2CC2)c1 [Roflumilast, roflumilast]

PAG + hippuric acid/creatinine (Crj: CD(SD)IGS rats [1]; [8]): 1.43 | PAG/PAG + hippuric acid (Crj: CD(SD)IGS rats [1]; [8]): 17.48% | PAG/creatinine (first term of PAG + hippuric acid) (Crj: CD(SD)IGS rats [1]; [8]): 0.25 | PAG/hippuric acid (Crj: CD(SD)IGS rats [1]; [8]): 18.22% | hippuric acid/creatinine (second term of PAG + hippuric acid) (Crj: CD(SD)IGS rats [1]; [8]): 1.18 | PAG + hippuric acid/creatinine (Crj: CD(SD)IGS rats [1]; [9]): 1.02 | PAG/PAG + hippuric acid (Crj: CD(SD)IGS rats [1]; [9]): 13.73% | PAG/creatinine (first term of PAG + hippuric acid) (Crj: CD(SD)IGS rats [1]; [9]): 0.14 | PAG/hippuric acid (Crj: CD(SD)IGS rats [1]; [9]): 16.29% | hippuric acid/creatinine (second term of PAG + hippuric acid) (Crj: CD(SD)IGS rats [1]; [9]): 0.88 | Histopathological changes (PLsis): Liver (Crj: CD(SD)IGS rats [2]; 30 mg/kg/day): − | Histopathological changes (PLsis): Lung (Crj: CD(SD)IGS rats [2]; 30 mg/kg/day): − | Histopathological changes (PLsis): Lymph node (Crj: CD(SD)IGS rats [2]; 30 mg/kg/day): − | Histopathological changes (PLsis): Others (Crj: CD(SD)IGS rats [2]; 30 mg/kg/day): − | Histopathological changes (PLsis): Spleen (Crj: CD(SD)IGS rats [2]; 30 mg/kg/day): − | Histopathological changes (PLsis): Liver (Crj: CD(SD)IGS rats [2]; 100 mg/kg/day): − | Histopathological changes (PLsis): Lung (Crj: CD(SD)IGS rats [2]; 100 mg/kg/day): − | Histopathological changes (PLsis): Lymph node (Crj: CD(SD)IGS rats [2]; 100 mg/kg/day): − | Histopathological changes (PLsis): Others (Crj: CD(SD)IGS rats [2]; 100 mg/kg/day): − | Histopathological changes (PLsis): Spleen (Crj: CD(SD)IGS rats [2]; 100 mg/kg/day): −
SMILES: COc1ccc(C2CNC(=O)C2)cc1OC1CCCC1 (stereo not drawn) [Rolipram, rolipram]
